According to US12258344B2, “Azaaromatic amide derivatives for the treatment of cancer” (SHENZHEN FORWARD PHARMACEUTICALS CO., LTD., priority 2019, dated 2025):
Where a name gives a salt, the structure may show the parent alone. Read-outs that look alike come from different tables or passages of the source.

Experiments:
Assay type in all cases: cell-based
BaF3 (EGFR/V769insASV) = BaF3 (EGFR/V769insASV) (Homo sapiens, UniProt P00533, DUP767-769, cells depend on it); assay: Test 15: EGFR exon 20 inserted V769insASV cell proliferation test; conditions: 72 hours, Cell Titer-Glo, read-out: Test 15 IC50
Procedure: Test 15: EGFR Exon 20 Inserted V769insASV Cell Proliferation Test
(§1) The number of viable cells in the culture was measured according to the protocol described in Promega's Cell Titer-Glo Luminescent cell Viability Assay (Promega catalog number #G7570). 90 μl of cells (3000 cells/well) were cultured in growth medium in a Corning black transparent bottom 96-well plate, and cultured in a 5% CO2 humidified incubator at 37° C. overnight. The compound serially diluted in 100% DMSO was added to the cells using a pipette, and the cells were incubated for another 72 hours. 100 μl of the mixed Cell Titer-Glo reagent was added to the cells in the 96-well culture plate to lyse the cells and mix gently. Subsequently, the […] was detected on the Envision microplate detector to obtain the data of each compound. Finally, the data was input into a suitable software package (such as Prism) for curve fitting analysis.

BaF3 (EGFR/D770insSVD) = biological target: T1, BaF3 (EGFR/D770insSVD) (Homo sapiens, UniProt P00533, DUP768-770, cells depend on it); assay: Test 13: EGFR exon 20 inserted D770insSVD cell proliferation test; conditions: BaF3 (EGFR/D770insSVD), 72 hours, Cell Titer-Glo, read-out: Test 13 IC50
T1 construct: Test 13 IC50 (nM); other: BaF3 (EGFR/D770insSVD), 72 hours, Cell Titer-Glo
Procedure: Test 13: EGFR Exon 20 Inserted D770insSVD Cell Proliferation Test
as §1, with “(3,000” for “(3000”

BaF3 (EGFR/A763insFQEA) = BaF3 (EGFR/A763insFQEA) (Homo sapiens, UniProt P00533, INS763FQEA, cells depend on it); assay: Test 14: EGFR exon 20 inserted A763insFQEA cell proliferation test; conditions: 72 hours, Cell Titer-Glo, read-out: Test 14 IC50
Procedure: Test 14: EGFR Exon 20 Inserted A763insFQEA Cell Proliferation Test
as §1, with “(3,000” for “(3000”

T1 sequence (P00533 with tags, fused parts or gaps DUP768-770): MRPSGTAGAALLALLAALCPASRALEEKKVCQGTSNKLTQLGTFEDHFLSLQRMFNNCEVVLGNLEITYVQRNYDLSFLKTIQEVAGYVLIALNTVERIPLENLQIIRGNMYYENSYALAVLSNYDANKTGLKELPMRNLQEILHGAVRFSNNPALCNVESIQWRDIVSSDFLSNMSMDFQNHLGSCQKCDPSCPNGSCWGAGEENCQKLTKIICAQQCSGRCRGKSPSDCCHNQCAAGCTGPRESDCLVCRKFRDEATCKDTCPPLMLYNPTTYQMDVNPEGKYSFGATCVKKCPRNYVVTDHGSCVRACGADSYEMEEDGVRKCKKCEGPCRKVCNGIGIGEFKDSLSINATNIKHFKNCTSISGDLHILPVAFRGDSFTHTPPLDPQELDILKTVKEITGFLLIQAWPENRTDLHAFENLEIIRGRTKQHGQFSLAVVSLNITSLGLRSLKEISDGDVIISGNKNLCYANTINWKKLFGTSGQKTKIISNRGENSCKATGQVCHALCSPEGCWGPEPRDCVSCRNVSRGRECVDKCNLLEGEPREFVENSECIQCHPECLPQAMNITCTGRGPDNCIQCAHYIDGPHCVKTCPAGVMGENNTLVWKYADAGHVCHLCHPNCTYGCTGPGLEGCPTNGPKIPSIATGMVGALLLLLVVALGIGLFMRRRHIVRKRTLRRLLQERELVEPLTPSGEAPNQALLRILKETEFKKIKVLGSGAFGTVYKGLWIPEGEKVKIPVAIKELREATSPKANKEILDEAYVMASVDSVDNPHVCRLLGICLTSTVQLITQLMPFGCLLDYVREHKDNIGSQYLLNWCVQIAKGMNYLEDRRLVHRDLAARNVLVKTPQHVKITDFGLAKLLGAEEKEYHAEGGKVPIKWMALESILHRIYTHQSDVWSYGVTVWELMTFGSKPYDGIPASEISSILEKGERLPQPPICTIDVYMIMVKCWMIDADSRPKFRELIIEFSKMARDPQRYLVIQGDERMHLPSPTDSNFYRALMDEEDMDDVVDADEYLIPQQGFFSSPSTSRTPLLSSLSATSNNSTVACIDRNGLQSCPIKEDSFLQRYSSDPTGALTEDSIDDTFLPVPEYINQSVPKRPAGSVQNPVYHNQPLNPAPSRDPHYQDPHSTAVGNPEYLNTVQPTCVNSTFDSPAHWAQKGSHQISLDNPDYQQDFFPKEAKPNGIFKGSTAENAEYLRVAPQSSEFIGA
Sequence of BaF3 (EGFR/V769insASV) (P00533 with tags, fused parts or gaps DUP767-769): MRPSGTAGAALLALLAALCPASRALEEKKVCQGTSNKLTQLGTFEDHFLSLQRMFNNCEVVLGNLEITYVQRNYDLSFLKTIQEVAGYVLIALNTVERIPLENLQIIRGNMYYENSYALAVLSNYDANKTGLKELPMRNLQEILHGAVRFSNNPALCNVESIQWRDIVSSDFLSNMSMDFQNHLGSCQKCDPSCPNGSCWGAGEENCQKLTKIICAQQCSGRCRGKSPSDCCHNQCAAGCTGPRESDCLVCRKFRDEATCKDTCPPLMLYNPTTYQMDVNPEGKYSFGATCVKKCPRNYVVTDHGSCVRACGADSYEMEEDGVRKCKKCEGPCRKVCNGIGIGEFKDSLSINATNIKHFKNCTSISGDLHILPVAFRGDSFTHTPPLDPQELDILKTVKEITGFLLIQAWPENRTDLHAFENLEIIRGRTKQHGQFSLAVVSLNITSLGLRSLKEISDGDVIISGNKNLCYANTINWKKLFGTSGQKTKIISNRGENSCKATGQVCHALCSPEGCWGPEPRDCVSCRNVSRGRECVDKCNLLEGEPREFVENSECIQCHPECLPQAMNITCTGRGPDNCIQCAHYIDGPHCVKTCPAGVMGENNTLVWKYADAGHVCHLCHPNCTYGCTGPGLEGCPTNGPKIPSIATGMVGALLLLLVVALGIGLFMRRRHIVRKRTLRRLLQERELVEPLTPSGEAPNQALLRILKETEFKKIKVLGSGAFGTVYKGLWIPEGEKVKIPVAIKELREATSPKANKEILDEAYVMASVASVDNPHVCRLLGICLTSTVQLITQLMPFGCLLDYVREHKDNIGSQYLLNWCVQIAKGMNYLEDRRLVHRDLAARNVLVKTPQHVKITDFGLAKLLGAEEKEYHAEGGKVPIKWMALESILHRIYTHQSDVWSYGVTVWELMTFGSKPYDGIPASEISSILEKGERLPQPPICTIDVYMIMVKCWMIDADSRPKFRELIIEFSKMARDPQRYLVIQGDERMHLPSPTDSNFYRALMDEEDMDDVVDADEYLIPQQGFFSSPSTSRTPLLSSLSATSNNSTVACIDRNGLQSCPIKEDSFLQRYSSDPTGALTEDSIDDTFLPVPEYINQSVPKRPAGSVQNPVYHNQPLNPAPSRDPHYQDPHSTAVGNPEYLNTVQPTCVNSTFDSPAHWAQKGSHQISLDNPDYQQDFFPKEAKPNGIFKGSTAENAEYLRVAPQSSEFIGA
Sequence of BaF3 (EGFR/A763insFQEA) (P00533 with tags, fused parts or gaps INS763FQEA): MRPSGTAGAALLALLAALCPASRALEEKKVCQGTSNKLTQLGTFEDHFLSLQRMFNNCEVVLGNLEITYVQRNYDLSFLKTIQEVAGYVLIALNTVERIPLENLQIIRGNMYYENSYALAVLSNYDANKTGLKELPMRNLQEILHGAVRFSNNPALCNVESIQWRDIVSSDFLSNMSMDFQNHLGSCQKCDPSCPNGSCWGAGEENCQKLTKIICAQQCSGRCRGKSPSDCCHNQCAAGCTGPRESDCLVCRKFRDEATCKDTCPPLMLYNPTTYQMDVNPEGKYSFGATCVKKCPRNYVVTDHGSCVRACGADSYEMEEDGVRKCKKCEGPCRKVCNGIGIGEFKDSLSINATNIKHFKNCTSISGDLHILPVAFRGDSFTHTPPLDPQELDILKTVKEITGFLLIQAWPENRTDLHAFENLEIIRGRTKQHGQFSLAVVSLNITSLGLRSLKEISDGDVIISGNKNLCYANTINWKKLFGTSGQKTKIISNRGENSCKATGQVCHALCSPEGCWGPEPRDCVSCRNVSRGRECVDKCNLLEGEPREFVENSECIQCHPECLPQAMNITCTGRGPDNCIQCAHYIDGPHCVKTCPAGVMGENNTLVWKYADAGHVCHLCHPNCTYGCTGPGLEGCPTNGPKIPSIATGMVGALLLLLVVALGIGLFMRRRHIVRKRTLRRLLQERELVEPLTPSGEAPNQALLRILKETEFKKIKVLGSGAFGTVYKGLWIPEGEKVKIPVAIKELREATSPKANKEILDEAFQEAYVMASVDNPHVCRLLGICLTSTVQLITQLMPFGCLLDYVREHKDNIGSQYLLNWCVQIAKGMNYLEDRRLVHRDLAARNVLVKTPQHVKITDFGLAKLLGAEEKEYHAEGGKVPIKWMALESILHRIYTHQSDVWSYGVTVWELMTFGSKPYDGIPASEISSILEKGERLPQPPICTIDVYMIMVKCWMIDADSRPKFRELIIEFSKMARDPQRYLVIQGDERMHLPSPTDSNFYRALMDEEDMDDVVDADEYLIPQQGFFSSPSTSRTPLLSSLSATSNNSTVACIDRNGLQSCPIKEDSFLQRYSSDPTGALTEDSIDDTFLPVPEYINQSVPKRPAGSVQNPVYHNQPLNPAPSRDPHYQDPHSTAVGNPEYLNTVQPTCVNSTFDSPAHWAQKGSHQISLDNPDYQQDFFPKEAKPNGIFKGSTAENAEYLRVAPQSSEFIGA

SMILES | GI50 (BaF3 (EGFR/V769insASV)) | GI50 (BaF3 (EGFR/D770insSVD)) | GI50 (BaF3 (EGFR/A763insFQEA)) | GI50 (BaF3 (EGFR/V769insASV); hydrochloride) | GI50 (BaF3 (EGFR/D770insSVD); hydrochloride) | GI50 (BaF3 (EGFR/A763insFQEA); hydrochloride)
C=CC(=O)Nc1cc(Nc2ncnc(-c3cnc4c(C)cccn34)n2)c(OC)cc1N(C)CCN(C)C [Compound 19, N-(2-((2-(dimethylamino)ethyl)(methyl)amino)-4-methoxy-5-((4-(8-methylimidazole[1,2-a]pyridin-3-yl)-1,3,5-triazin-2-yl)amino)phenyl)acrylamide] | 0.148 µM | 0.144 µM | 0.0426 µM | – | – | –
C=CC(=O)Nc1cc(Nc2nccc(-c3cn(C)c4ccc(F)cc34)n2)c(OC(F)F)cc1N(C)CCNC [Compound 20, N-(4-(difluoromethoxy)-5-((4-(5-fluoro-1-methyl-1H-indol-3-yl)pyrimidin-2-yl)amino)-2-(methyl(2-(methylamino)ethyl)amino)phenyl)acrylamide] | 0.155 µM | 0.0892 µM | 0.0751 µM | – | – | –
C=CC(=O)Nc1cc(Nc2nccc(-c3cn(C)c4ccc(F)cc34)n2)c(OC)cc1N(C)CCN(C)C [Compound 21, N-(2-((2-(dimethylamino)ethyl)(methyl)amino)-5-((4-(5-fluoro-1-methyl-1H-indol-3-yl)pyrimidin-2-yl)amino)-4-methoxyphenyl)acrylamide] | 0.0986 µM | 0.081 µM | 0.0501 µM | – | – | –
C=CC(=O)Nc1cc(Nc2nccc(-c3cn(C)c4ccc(F)cc34)n2)c(OCC)cc1N(C)CCN(C)C [Compound 22, N-(2-((2-(dimethylamino)ethyl)(methyl)amino)-4-ethoxy-5-((4-(5-fluoro-1-methyl-1H-indol-3-yl)pyrimidin-2-yl)amino)phenyl)acrylamide] | 0.365 µM | 0.248 µM | 0.193 µM | – | – | –
C=CC(=O)Nc1cc(Nc2nccc(-c3cn(C)c4ccccc34)n2)c(OCC)cc1N(C)CCN(C)C [Compound 23, N-(2-((2-(dimethylamino)ethyl)(methyl)amino)-4-ethoxy-5-((4-(1-methyl-1H-indole-3-yl)pyrimidin-2-yl)amino)phenyl)acrylamide] | 0.264 µM | 0.219 µM | 0.122 µM | – | – | –
C=CC(=O)Nc1cc(Nc2nccc(-c3cn(C)c4ccccc34)n2)c(OCC)cc1N(C)CCNC [Compound 24, N-(4-ethoxy-2-(methyl(2-(methylamino)ethyl)amino)-5-((4-(1-methyl-1H-indol-3-yl)pyrimidine-2-yl)amino)phenyl)acrylamide] | 0.266 µM | 0.207 µM | 0.213 µM | – | – | –
C=CC(=O)Nc1cc(Nc2nccc(-c3cn(C)c4ccc(F)cc34)n2)c(OC)cc1N(C)CCNC [Compound 25, N-(5-((4-(5-fluoro-1-methyl-1H-indol-3-yl)pyrimidin-2-yl)amino)-4-methoxy-2-(methyl(2-(methylamino)ethyl)amino)phenyl)acrylamide] | 0.104 µM | 0.0789 µM | 0.051 µM | – | – | –
C=CC(=O)Nc1cc(Nc2nccc(-c3cn(C)c4ccccc34)n2)c(OC(F)F)cc1N(C)CCNC [Compound 26, N-(4-(difluoromethoxy)-2-(methyl(2-(methylamino)ethyl)amino)-5-((4-(1-methyl-1H-indole-3-yl)pyrimidin-2-yl)amino)phenyl)acrylamide] | 0.126 µM | 0.142 µM | 0.0383 µM | – | – | –
C=CC(=O)Nc1cc(Nc2nccc(-c3cn(C)c4ccc(F)cc34)n2)c(OCC)cc1N(C)CCNC [Compound 27, N-(4-ethoxy-5-((4-(5-fluoro-1-methyl-1H-indol-3-yl)pyrimidin-2-yl)amino)-2-(methyl(2-(methylamino)ethyl)amino)phenyl)acrylamide] | 0.319 µM | 0.195 µM | 0.177 µM | – | – | –
C=CC(=O)Nc1cc(Nc2nccc(-c3cn(C4CC4)c4ccccc34)n2)c(OC)cc1N(C)CCN(C)C [Compound 28, N-(5-((4-(1-cyclopropyl-1H-indole)pyrimidin-2-yl)-2-((2-(dimethylamino)ethyl(methyl)amine)-4-methoxyphenyl)acrylamide hydrochloride] | – | – | – | 0.176 µM | 0.237 µM | 0.0664 µM
C=CC(=O)Nc1cc(Nc2nccc(-c3cn(C4CC4)c4ccccc34)n2)c(OC)cc1N(C)CCN(C)C [Compound 29, N-(5-((4-(1-cyclopropyl-1H-indole)pyrimidin-2-yl)-2-((2-(dimethylamino)ethyl(methyl)amine)-4-methoxyphenyl)acrylamide methanesulfonate] | 0.174 µM | 0.24 µM | 0.0607 µM | – | – | –
C=CC(=O)Nc1cc(Nc2nccc(-c3cn(C4CC4)c4ccccc34)n2)c(OC)cc1N(C)CCN(C)C [Compound 30] | 0.177 µM | 0.239 µM | 0.0636 µM | – | – | –
C=CC(=O)Nc1cc(Nc2nccc(-n3cc(CN(C)C)c(-c4ccccc4)n3)n2)c(OC)cc1N1CCOCC1 [Compound 34, N-(5-((4-(4-((dimethylamine)methyl)-3-phenyl-1H-pyrazol-1-yl)pyrimidin-2-yl)amine)-4-methoxy-2-morpholinylphenyl)acrylamide] | 0.406 µM | 0.598 µM | 0.0538 µM | – | – | –
C=CC(=O)Nc1cccc(Oc2nc(Nc3ccc(N4CCN(C)CC4)c(F)c3)nc3[nH]ccc23)c1 [Compound 35, N-(3-((2-((3-fluoro-4-(4-methylpiperazin-1-yl)phenyl)amine)-7H-pyrazole[2,3-d]pyrimidine-4-yl)oxo)phenyl)acrylamide] | 0.105 µM | 0.146 µM | 0.106 µM | – | – | –
C=CC(=O)Nc1cccc(Oc2nc(Nc3ccc(N4CCN(C)CC4)cc3)nc3ccsc23)c1 [Compound 36, N-(3-((2-((4-(4-methylpiperazin-1-yl)phenyl)amine)thieno[3,2-d]pyrimidin-4-yl)oxo)phenyl)acrylamide] | 0.325 µM | 0.454 µM | 0.17 µM | – | – | –
COc1cc2ncnc(Nc3cccc(Cl)c3F)c2cc1OC(=O)N1CCN(C)C[C@H]1C [Compound 38] | > 3.33 µM | > 3.33 µM | 0.0712 µM | – | – | –
Cc1cc(C(=O)Nc2nc3cccc(Cl)c3n2[C@@H]2CCCCN(C(=O)/C=C/CN(C)C)C2)ccn1 [Compound 39, (R,E)-N-(7-chloro-1-(1-(4-(dimethylamine)-2-butenoyl)azepane-3-yl)-1H-benzo[d]imidazol-2-yl)-2-methylisonicotinamide] | 0.455 µM | 0.963 µM | 0.309 µM | – | – | –
